Ki data for one molecule are collected here from publication PMC6625639 (Biochemical pharmacology, 2018).

The target of one experiment is SULT1A1 (Homo sapiens, UniProt P50225). The format is biochemical.
In the next experiment the target is T1, SULT2A1 (Homo sapiens, UniProt Q06520).
T1 sequence (Q06520 1-285): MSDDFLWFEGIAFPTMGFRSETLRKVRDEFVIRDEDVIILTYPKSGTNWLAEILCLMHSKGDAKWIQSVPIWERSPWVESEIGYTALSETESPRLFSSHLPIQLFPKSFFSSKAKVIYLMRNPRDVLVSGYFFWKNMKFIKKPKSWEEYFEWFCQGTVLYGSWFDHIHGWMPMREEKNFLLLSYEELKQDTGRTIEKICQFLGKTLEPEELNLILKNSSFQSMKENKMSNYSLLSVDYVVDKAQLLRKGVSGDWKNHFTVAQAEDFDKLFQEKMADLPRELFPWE
Type of experiment: biochemical.

SULT1A1, sequence (P50225 whole entry): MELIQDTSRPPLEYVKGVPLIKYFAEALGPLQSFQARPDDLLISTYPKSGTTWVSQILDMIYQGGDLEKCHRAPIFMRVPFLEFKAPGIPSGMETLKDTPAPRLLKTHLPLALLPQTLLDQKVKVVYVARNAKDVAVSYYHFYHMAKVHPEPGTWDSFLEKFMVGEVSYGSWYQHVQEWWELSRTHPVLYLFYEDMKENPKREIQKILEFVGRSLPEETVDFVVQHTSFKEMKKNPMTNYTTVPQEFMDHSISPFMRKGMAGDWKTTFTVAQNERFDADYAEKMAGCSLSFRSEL

A word on the Ki: it is the dissociation constant of the complex between target and ligand, obtained from inhibition or displacement. Lower therefore signals tighter binding. In the case of `Cc1cccc(Nc2ccccc2C(=O)O)c1C` [Mef, Mefenamic acid], the Ki at SULT1A1 worked out at 0.027 µM; on SULT2A1, 14 µM.
